# Read-outs that look alike come from different tables or passages of the source.
# Key:
# [1] = tested on: ER+/HER2− locally advanced or metastatic breast cancer; experiment: FIH Study Part A: clinical activity (CBR, ORR); format: in vivo, human
# Source text: Based on a 6 Jun. 2023 data cut-off, evidence of preliminary clinical activity was observed, as assessed by CBR and ORR, in the monotherapy Part A dose escalation cohort of the FIH Study.
# Per protocol, the CBR evaluable analysis set included all treated patients who were enrolled at least 24 weeks prior to the data cut-off of analysis. CBR was defined as a confirmed CR or PR per RECIST v1.1 or SD with a minimum duration of 24 weeks.
# Per protocol, the response-evaluable analysis set included all treated patients who had measurable disease at baseline and ORR was based on confirmed responses per RECIST v1.1.
# AR = AR (Homo sapiens, UniProt P10275); experiment: Secondary pharmacodynamics binding, AR; details: in vitro
# GR = GR (Homo sapiens, UniProt P04150); experiment: Secondary pharmacodynamics binding, GR; details: in vitro
# opioid kappa receptor = opioid kappa receptor (Homo sapiens, UniProt P41145); experiment: Secondary pharmacodynamics binding, opioid kappa receptor; details: in vitro
# [2] = Single-dose oral TK and tolerability study in beagle dogs; format: in vivo; details: dog
# Experimental: A lead-in single-dose TK and tolerability study conducted prior to the telemetry study indicated approximately dose-proportional increase in exposure between 200 and 400 mg/kg in the dog.
# [3] = 28-day GLP oral toxicity study in rats; details: both sexes, in vivo; rat, 28 days oral
# Experimental: There were no mortalities and no Compound A-related clinical observations or changes in BWs or food consumption, and no FOB observations or ophthalmology findings. Minor clinical pathology changes at the 100 mg/kg/day dose level (minimally higher lymphocyte count in males, minimally lower calcium concentration in both sexes, minimally lower albumin concentration in males, and mildly lower cholesterol concentration in females) were potentially Compound A-related but were reversible and were not considered adverse.
# Compound A-related microscopic findings included increased ovarian cysts in females administered ≥3 mg/kg/day and atrophy of the uterus and of the cervical and vaginal mucosal epithelium in females administered ≥10 mg/kg/day. […] Similar findings had been noted in a few animals in the 7-day study.
# [4] = 3-month GLP oral toxicity study in dogs; format: in vivo, dog; details: for Cmax / AUC(0-t): plasma, po, Day 91; for AUC(0-t): read-out: AUC0-24
# Experimental: Male and female Beagle dogs, 4/sex/group, were administered 0 (vehicle), 10, 30, or 90 mg/kg/day. Assessment of toxicity was based on clinical observations, BWs, food consumption, ophthalmology, ECG evaluations, and clinical and anatomic pathology.
# [5] = Interconversion (epimerization) Compound A/Compound B in animals; format: in vivo, mouse, rat, dog, and monkey; details: monkey
# P-gp = P-gp (Homo sapiens, UniProt P08183); experiment: Efflux transporter substrate assessment (inside-out vesicular assay), P-gp; format: in vitro ADME
# [6] = Solubility in phosphate buffer; format: physicochemical; details: aqueous buffer; phosphate buffer at pH 7.4
# [7] = Plasma protein binding, monkey; format: in vitro ADME; details: read-out: free fraction
# [8] = Tissue distribution in rat; format: in vivo; details: for Kp at 3 days: 100 mg/kg/day PO 3 days
# reticulocytes = experiment: Rat micronucleus test; format: in vivo; details: 400, 800, 1600 mg/kg/day, two days
# [9] = Preliminary embryo-fetal development study
# [10] = Phase 2 study of Compound A or anastrozole in early ER+/HER2− breast cancer: adverse events
# Source text: The study will also evaluate safety, tolerability, and clinical and pathological response after approximately 5.5 months of treatment.
# [11] = Beagle, dog, female dogs, 90 mg/kg/day
# [12] = Beagle, dog, male dogs, 90 mg/kg/day
# [13] = female, Sprague-Dawley, rat, in vivo, oral, 30 mg/kg/day
# [14] = TEAE, Treatment Related per title, Compound A 200 mg N = 23, Anastrozole 1 mg N = 13
# Chain of AR (P10275 whole entry): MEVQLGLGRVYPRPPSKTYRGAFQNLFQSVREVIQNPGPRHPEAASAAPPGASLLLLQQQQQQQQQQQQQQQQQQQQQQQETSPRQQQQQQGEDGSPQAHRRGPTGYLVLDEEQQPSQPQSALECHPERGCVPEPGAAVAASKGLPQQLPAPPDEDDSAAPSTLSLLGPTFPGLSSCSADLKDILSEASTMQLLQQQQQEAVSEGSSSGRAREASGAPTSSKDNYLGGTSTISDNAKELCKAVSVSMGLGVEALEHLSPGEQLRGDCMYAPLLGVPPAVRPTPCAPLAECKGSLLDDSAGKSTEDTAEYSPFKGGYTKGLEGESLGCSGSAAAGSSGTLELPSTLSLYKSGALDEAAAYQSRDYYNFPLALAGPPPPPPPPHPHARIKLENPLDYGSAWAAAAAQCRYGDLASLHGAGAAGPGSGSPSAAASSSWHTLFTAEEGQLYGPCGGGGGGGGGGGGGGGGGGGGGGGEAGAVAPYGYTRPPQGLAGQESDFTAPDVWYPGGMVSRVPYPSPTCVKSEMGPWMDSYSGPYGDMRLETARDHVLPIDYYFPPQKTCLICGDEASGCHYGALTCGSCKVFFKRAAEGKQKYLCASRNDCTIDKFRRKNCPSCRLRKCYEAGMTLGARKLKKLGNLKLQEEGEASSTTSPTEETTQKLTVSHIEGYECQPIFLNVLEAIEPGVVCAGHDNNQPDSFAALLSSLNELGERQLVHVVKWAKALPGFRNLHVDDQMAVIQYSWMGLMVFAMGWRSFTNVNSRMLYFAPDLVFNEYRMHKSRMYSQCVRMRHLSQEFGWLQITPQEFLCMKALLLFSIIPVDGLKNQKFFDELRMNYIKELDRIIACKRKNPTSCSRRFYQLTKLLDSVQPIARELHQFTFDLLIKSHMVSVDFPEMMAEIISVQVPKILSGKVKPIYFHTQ
# Chain of P-gp (P08183 whole entry): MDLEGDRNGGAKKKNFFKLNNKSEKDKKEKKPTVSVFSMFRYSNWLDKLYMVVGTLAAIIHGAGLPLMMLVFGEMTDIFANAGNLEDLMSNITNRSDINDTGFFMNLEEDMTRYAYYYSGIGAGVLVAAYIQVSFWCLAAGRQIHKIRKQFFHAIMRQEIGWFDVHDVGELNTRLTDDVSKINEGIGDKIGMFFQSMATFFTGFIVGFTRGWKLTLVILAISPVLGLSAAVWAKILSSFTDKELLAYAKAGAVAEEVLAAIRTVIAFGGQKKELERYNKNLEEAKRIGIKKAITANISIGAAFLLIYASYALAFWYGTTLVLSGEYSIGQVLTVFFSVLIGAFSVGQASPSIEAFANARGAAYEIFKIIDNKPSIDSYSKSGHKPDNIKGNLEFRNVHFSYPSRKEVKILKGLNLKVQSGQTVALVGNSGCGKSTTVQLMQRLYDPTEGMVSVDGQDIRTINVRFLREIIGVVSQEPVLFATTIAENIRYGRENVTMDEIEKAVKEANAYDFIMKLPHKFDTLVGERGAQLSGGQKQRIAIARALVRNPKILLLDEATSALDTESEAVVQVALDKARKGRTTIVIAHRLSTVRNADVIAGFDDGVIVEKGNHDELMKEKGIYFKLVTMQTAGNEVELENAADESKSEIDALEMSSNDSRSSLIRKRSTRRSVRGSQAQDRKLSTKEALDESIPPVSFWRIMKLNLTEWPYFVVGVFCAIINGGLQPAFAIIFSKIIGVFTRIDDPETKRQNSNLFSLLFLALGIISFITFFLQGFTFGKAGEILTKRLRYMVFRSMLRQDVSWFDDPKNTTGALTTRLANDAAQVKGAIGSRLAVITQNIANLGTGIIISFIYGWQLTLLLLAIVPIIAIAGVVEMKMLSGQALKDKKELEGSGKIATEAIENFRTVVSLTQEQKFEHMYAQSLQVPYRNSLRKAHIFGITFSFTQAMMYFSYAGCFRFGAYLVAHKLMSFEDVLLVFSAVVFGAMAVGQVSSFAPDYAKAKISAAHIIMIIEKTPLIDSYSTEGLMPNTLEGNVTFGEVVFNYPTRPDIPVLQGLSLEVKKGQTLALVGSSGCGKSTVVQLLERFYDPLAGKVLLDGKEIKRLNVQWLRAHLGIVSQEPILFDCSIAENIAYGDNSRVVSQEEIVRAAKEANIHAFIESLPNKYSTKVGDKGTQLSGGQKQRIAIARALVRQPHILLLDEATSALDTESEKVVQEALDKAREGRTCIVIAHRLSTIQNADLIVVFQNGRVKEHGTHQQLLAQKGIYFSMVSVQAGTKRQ
# Chain of opioid kappa receptor (P41145 whole entry): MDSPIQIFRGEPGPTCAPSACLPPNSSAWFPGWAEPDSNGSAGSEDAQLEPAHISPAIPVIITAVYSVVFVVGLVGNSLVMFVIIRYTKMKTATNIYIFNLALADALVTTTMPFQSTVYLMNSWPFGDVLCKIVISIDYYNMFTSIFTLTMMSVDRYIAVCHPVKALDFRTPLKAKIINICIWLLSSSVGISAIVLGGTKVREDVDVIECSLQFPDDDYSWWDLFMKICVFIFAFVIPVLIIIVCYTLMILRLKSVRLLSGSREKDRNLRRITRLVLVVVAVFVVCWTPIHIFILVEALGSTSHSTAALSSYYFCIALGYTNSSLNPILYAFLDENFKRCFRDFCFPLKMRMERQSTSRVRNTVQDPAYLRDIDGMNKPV
# Chain of GR (P04150 whole entry): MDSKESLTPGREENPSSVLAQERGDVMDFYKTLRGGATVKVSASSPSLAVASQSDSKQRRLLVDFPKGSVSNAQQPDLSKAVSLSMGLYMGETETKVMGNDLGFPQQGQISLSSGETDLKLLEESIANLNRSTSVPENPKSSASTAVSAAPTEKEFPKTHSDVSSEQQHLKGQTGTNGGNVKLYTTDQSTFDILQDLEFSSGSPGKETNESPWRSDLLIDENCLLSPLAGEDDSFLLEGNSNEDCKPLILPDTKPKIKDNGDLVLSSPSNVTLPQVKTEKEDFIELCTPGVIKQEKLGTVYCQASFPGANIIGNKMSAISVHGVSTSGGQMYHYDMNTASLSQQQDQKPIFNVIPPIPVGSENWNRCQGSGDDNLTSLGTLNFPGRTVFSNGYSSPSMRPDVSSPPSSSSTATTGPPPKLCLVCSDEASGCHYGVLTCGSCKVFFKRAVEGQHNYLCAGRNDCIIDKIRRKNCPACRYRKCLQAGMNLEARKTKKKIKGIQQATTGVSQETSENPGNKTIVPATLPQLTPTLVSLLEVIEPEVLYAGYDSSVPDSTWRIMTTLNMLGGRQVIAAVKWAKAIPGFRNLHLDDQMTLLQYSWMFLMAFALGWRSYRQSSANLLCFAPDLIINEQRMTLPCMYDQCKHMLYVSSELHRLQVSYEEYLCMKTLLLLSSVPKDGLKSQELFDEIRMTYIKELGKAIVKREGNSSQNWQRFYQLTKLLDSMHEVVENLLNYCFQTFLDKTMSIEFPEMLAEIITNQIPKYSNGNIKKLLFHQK
structure (smiles),measurement,setting,value
"O=C1CC[C@H](N2Cc3cc(N4CCN(CC5CCN(c6ccc([C@@H]7c8ccc(O)cc8CC[C@@H]7c7ccccc7)cc6)CC5)CC4)ccc3C2=O)C(=O)N1 [Compound A, (S)-3-(5-(4-((1-(4-((1R,2S)-6-hydroxy-2-phenyl-1,2,3,4-tetrahydronaphthalen-1-yl)phenyl)piperidin-4-yl)methyl)piperazin-1-yl)-1-oxoisoindolin-2-yl)piperidine-2,6-dione]",ORR,"[1]; 7 of 61 response-evaluable, confirmed PR, 95% CI 4.7%, 22.2%",11.5%
same,CBR,"[1]; 30 of 83 evaluable patients, 95% CI 25.9%, 47.4%, cut-off 6 Jun 2023",36.1%
same,CBR,"[1]; Phase 1, ESR1-mutant tumors",50%
same,CBR,"[1]; Phase 1, all patients",40%
same,binding,AR,bound
same,binding,GR,bound
same,binding,opioid kappa receptor,bound
same,Cmax,"[2]; both sexes, beagle, in vivo, 400 mg/kg single oral, sexes combined",25000 ng/mL
same,AUC,"[2]; both sexes, beagle, in vivo, 400 mg/kg single oral, sexes combined, read-out: mean AUC24",349000 ng·h/mL
same,tolerability,"[2]; 200 or 400 mg/kg single oral, fecal changes, emesis at 400",tolerated
same,NOAEL at 28 days,[3],100 mg/kg/day
same,NOAEL at 3 months,"[4]; Beagle, dog, in vivo, oral, male dogs, 3 months",90 mg/kg/day
same,Cmax,[4]; [11],4250 ng/mL
same,AUC(0-t),[4]; [11],73100 ng·h/mL
same,Cmax,[4]; [12],4880 ng/mL
same,AUC(0-t),[4]; [12],83500 ng·h/mL
same,ECG intervals,"[4]; dog, 90 mg/kg/day, Day 85","nonadverse increases in QT-, QTc-, and PR-intervals"
same,NOAEL,"[4]; female dogs, 3 months",A NOAEL was not identified
same,extent of epimerization,[5],negligible
same,substrate of P-gp,P-gp,unlikely to be a substrate
same,solubility,[6],1.5 µg/mL
same,fraction unbound at 1 μM,[7],0.04
same,tissue accumulation upon repeat-dose,[8],no signs of tissue accumulation
same,Kp at 3 days,"[8]; brain, read-out: tissue plasma ratio, brain",≤ 0.1
same,blood brain barrier crossing,[8]; in vivo,does not readily cross the blood brain barrier
same,Kp at 3 days,"[8]; lung, read-out: tissue plasma ratio, lung",5.6 to 13.9
same,chromosomal damage in reticulocytes,reticulocytes,did not induce chromosomal damage
same,TK animals confirmed pregnant at GD 18,[9]; 30 mg/kg,5/6
same,females with pregnancy confirmed at GD 21,[9]; 30 mg/kg,7/8
same,post implantation loss,[9]; 30 mg/kg/day,47.31%
same,mean number of live fetuses,"[9]; 30 mg/kg/day, controls 11.3",7.0 live fetuses/litter
same,TK animals confirmed pregnant at GD 18,[9]; 100 mg/kg,3/6
same,females with pregnancy confirmed at GD 21,[9]; 100 mg/kg,4/8
same,mean number of live fetuses,[9]; 100 mg/kg/day,no live fetuses/litter
same,post implantation loss,[9]; 100 mg/kg/day,100%
same,TK animals confirmed pregnant at GD 18,[9]; 300 mg/kg,0/6
same,females with pregnancy confirmed at GD 21,[9]; 300 mg/kg,0/8
same,AUC(0-t),[9]; [13],4380 ng·h/mL
same,Cmax,[9]; [13],291 ng/mL
same,external or visceral malformations or variations,"[9]; surviving fetuses, 30 mg/kg/day",did not produce any external or visceral malformations or variations
same,participants on Compound A with a treatment-related AE,"[10]; 200 mg, seven participants, 6 Jun 2023",19.4%
same,Anemia,[10]; [14],0 n (%)
same,Arthralgia,[10]; [14],0 n (%)
same,Asphyxia,[10]; [14],1 (4.3) n (%)
same,Asthenia,[10]; [14],2 (8.7) n (%)
same,Blood and lymphatic system disorders,[10]; [14],1 (4.3) n (%)
same,Blood uric acid increased,[10]; [14],1 (4.3) n (%)
same,Breast pain,[10]; [14],1 (4.3) n (%)
same,Cardiac disorders,[10]; [14],1 (4.3) n (%)
same,Constipation,[10]; [14],2 (8.7) n (%)
same,Diarrhea,[10]; [14],1 (4.3) n (%)
same,Dyspepsia,[10]; [14],0 n (%)
same,Fatigue,[10]; [14],1 (4.3) n (%)
same,Gastrointestinal disorders,[10]; [14],4 (17.4) n (%)
same,General disorders and administration site conditions,[10]; [14],4 (17.4) n (%)
same,Hematocrit decreased,[10]; [14],0 n (%)
same,Heparin-induced thrombocytopenia,[10]; [14],1 (4.3) n (%)
same,Hepatobiliary disorders,[10]; [14],3 (13.0) n (%)
same,Hot flush,[10]; [14],3 (13.0) n (%)
same,Hyperbilirubinemia,[10]; [14],2 (8.7) n (%)
same,Hypercalcemia,[10]; [14],1 (4.3) n (%)
same,Hyperglycemia,[10]; [14],2 (8.7) n (%)
same,Hypernatremia,[10]; [14],1 (4.3) n (%)
same,Hypertransaminasemia,[10]; [14],1 (4.3) n (%)
same,Hypokalemia,[10]; [14],1 (4.3) n (%)
same,Hyponatremia,[10]; [14],1 (4.3) n (%)
same,"Injury, poisoning and procedural complications",[10]; [14],1 (4.3) n (%)
same,Insomnia,[10]; [14],1 (4.3) n (%)
same,Investigations,[10]; [14],1 (4.3) n (%)
same,Lymphopenia,[10]; [14],0 n (%)
same,Metabolism and nutrition disorders,[10]; [14],2 (8.7) n (%)
same,Musculoskeletal and connective tissue disorders,[10]; [14],0 n (%)
same,Myalgia,[10]; [14],0 n (%)
same,Nervous system disorders,[10]; [14],2 (8.7) n (%)
same,Odynophagia,[10]; [14],1 (4.3) n (%)
same,Procedural pain,[10]; [14],1 (4.3) n (%)
same,Pruritus,[10]; [14],1 (4.3) n (%)
same,Psychiatric disorders,[10]; [14],2 (8.7) n (%)
same,Pyrexia,[10]; [14],1 (4.3) n (%)
same,Reproductive system and breast disorders,[10]; [14],1 (4.3) n (%)
same,"Respiratory, thoracic and mediastinal disorders",[10]; [14],1 (4.3) n (%)
same,Sinus bradycardia,[10]; [14],1 (4.3) n (%)
same,Skin and subcutaneous tissue disorders,[10]; [14],1 (4.3) n (%)
same,Somnolence,[10]; [14],2 (8.7) n (%)
same,Stomatitis,[10]; [14],1 (4.3) n (%)
same,Tension,[10]; [14],1 (4.3) n (%)
same,Vascular disorders,[10]; [14],3 (13.0) n (%)
same,With Any Adverse Event,[10]; [14],11 (47.8) n (%)

# Reference: patent US20260069588A1, “VEPDEGESTRANT FOR USE IN TREATING CANCER” (Arvinas Operation, Inc., priority 2022, published 2026)
